Laboratory results published in paper PMC10177510, “A Multicenter, Open-Label, Phase I/II Study of FN-1501 in Patients with Advanced Solid Tumors” (Cancers, 2023).

Experiment: Phase I/II dose escalation: safety and tolerability (DLT, TEAE)
Format: in vivo
Procedure: This Phase 1/2, FIH, open-label, multi-center, single-arm, dose-escalation study was conducted in pts with histologically or cytologically confirmed advanced solid tumors or R/R AML.
In the absence of worrisome toxicity, the remaining pts could be enrolled and dosed in that cohort. Safety evaluations were performed by investigators, the medical monitor, and the Sponsor. A Safety Monitoring Committee determined dose levels to be administered during dose escalation based on data available from the current and previous dose levels.

CN1CCN(Cc2ccc(NC(=O)c3[nH]ncc3Nc3ncnc4[nH]ccc34)cc2)CC1 [FN-1501]
45: Total patients with at least 1 TEAE (Total, N = 48)
1 (25): Bacteraemia, Grade ≥ 3 TEAE, n (%) (170 mg/day, N = 4) | Dehydration, Grade ≥ 3 TEAE, n (%) (170 mg/day, N = 4) | Hypoxia, Grade ≥ 3 TEAE, n (%) (170 mg/day, N = 4) | Lethargy, Grade ≥ 3 TEAE, n (%) (170 mg/day, N = 4) | Neutropenia, Grade ≥ 3 TEAE, n (%) (170 mg/day, N = 4) | Diarrhoea, Grade ≥ 3 TEAE, n (%) (226 mg/day, N = 4) | Hypophosphataemia, Grade ≥ 3 TEAE, n (%) (226 mg/day, N = 4) | Infusion related reaction, Grade ≥ 3 TEAE, n (%) (226 mg/day, N = 4) | Iron deficiency anaemia, Grade ≥ 3 TEAE, n (%) (226 mg/day, N = 4) | Pneumonia, Grade ≥ 3 TEAE, n (%) (226 mg/day, N = 4) | Thrombocytopenia, Grade ≥ 3 TEAE, n (%) (226 mg/day, N = 4)
64%: Treatment-related adverse events (TRAEs), pts (all doses 2.5 to 226 mg IV)
43: Total number of TEAEs (128 mg/day, N = 3)
6: Back pain, patients with event (Total, N = 48) | Decreased appetite, patients with event (Total, N = 48) | Dyspnea, patients with event (Total, N = 48)
5: Total patients with at least 1 TEAE (96 mg/day, N = 5) | Oedema peripheral, patients with event (Total, N = 48) | Pyrexia, patients with event (Total, N = 48)
7: Constipation, patients with event (Total, N = 48) | Dizziness, patients with event (Total, N = 48) | Infusion-related reaction, patients with event (Total, N = 48)
50%: pts with ≥Grade 3 AEs that qualified as DLTs (226 mg/d cohort)
1 (2): Abdominal distension, Grade ≥ 3 TEAE, n (%) (Total, N = 48) | Adrenal insufficiency, Grade ≥ 3 TEAE, n (%) (Total, N = 48) | Anaemia, Grade ≥ 3 TEAE, n (%) (Total, N = 48) | Blood alkaline phosphatase increased, Grade ≥ 3 TEAE, n (%) (Total, N = 48) | Blood bilirubin increased, Grade ≥ 3 TEAE, n (%) (Total, N = 48) | Lipase increased, Grade ≥ 3 TEAE, n (%) (Total, N = 48) | Peritonitis, Grade ≥ 3 TEAE, n (%) (Total, N = 48) | Pneumonia aspiration, Grade ≥ 3 TEAE, n (%) (Total, N = 48) | Pneumothorax, Grade ≥ 3 TEAE, n (%) (Total, N = 48) | Sepsis, Grade ≥ 3 TEAE, n (%) (Total, N = 48) | Syncope, Grade ≥ 3 TEAE, n (%) (Total, N = 48)
21%: Grade 1 or 2 fatigue, pts (discussion, all doses)
33: Total number of TEAEs (96 mg/day, N = 5)
No DLTs: DLTs (doses of 170 mg or lower)
3: Diarrhea, patients with event (226 mg/day, N = 4)
170 mg/day: Maximum tolerated dose (MTD) (IV TIW 2 weeks on, 1 week off)
1: Diarrhea, patients with event (72 mg/day, N = 3) | Nausea, patients with event (72 mg/day, N = 3) | Oedema peripheral, patients with event (72 mg/day, N = 3) | Small intestinal obstruction, Grade ≥ 3 TEAE, n (%) (72 mg/day, N = 3) | Constipation, patients with event (96 mg/day, N = 5) | Diarrhea, patients with event (96 mg/day, N = 5) | Diarrhoea, Grade ≥ 3 TEAE, n (%) (96 mg/day, N = 5) | Dizziness, patients with event (96 mg/day, N = 5) | Infusion-related reaction, patients with event (96 mg/day, N = 5) | Lipase increased, Grade ≥ 3 TEAE, n (%) (96 mg/day, N = 5) | Pneumonia aspiration, Grade ≥ 3 TEAE, n (%) (96 mg/day, N = 5) | Pneumonia, Grade ≥ 3 TEAE, n (%) (96 mg/day, N = 5) | Pneumothorax, Grade ≥ 3 TEAE, n (%) (96 mg/day, N = 5) | Abdominal pain, patients with event (128 mg/day, N = 3) | Acute kidney injury, Grade ≥ 3 TEAE, n (%) (128 mg/day, N = 3) | Aspartate aminotransferase increased, Grade ≥ 3 TEAE, n (%) (128 mg/day, N = 3) | Back pain, patients with event (128 mg/day, N = 3) | Blood creatinine increased, Grade ≥ 3 TEAE, n (%) (128 mg/day, N = 3) | Decreased appetite, patients with event (128 mg/day, N = 3) | Dizziness, patients with event (128 mg/day, N = 3) | Dyspnea, patients with event (128 mg/day, N = 3) | Fatigue, patients with event (128 mg/day, N = 3) | Nausea, patients with event (128 mg/day, N = 3) | Oedema peripheral, patients with event (128 mg/day, N = 3) | Pyrexia, patients with event (128 mg/day, N = 3) | Abdominal pain, patients with event (170 mg/day, N = 4) | Decreased appetite, patients with event (170 mg/day, N = 4) | Dizziness, patients with event (170 mg/day, N = 4) | Hyponatraemia, Grade ≥ 3 TEAE, n (%) (170 mg/day, N = 4) | Nausea, patients with event (170 mg/day, N = 4) | Vomiting, patients with event (170 mg/day, N = 4) | Decreased appetite, patients with event (226 mg/day, N = 4) | Dizziness, patients with event (226 mg/day, N = 4) | Hyponatraemia, Grade ≥ 3 TEAE, n (%) (226 mg/day, N = 4) | Infusion-related reaction, patients with event (226 mg/day, N = 4) | Nausea, patients with event (226 mg/day, N = 4) | Abdominal pain, Grade ≥ 3 TEAE, n (%) (Total, N = 48) | Acute kidney injury, Grade ≥ 3 TEAE, n (%) (Total, N = 48) | Aspartate aminotransferase increased, Grade ≥ 3 TEAE, n (%) (Total, N = 48) | Bacteraemia, Grade ≥ 3 TEAE, n (%) (Total, N = 48) | Bacterial sepsis, Grade ≥ 3 TEAE, n (%) (Total, N = 48) | Blood creatinine increased, Grade ≥ 3 TEAE, n (%) (Total, N = 48) | Catheter site infection, Grade ≥ 3 TEAE, n (%) (Total, N = 48) | Dehydration, Grade ≥ 3 TEAE, n (%) (Total, N = 48) | Delirium, Grade ≥ 3 TEAE, n (%) (Total, N = 48) | Hypophosphataemia, Grade ≥ 3 TEAE, n (%) (Total, N = 48) | Hypoxia, Grade ≥ 3 TEAE, n (%) (Total, N = 48) | Infusion related reaction, Grade ≥ 3 TEAE, n (%) (Total, N = 48) | Iron deficiency anaemia, Grade ≥ 3 TEAE, n (%) (Total, N = 48) | Lethargy, Grade ≥ 3 TEAE, n (%) (Total, N = 48) | Lung infection, Grade ≥ 3 TEAE, n (%) (Total, N = 48) | Neutropenia, Grade ≥ 3 TEAE, n (%) (Total, N = 48) | Stomatitis, Grade ≥ 3 TEAE, n (%) (Total, N = 48) | Thrombocytopenia, Grade ≥ 3 TEAE, n (%) (Total, N = 48) | Vascular access complication, Grade ≥ 3 TEAE, n (%) (Total, N = 48)
381: Total number of TEAEs (Total, N = 48)
2: Total patients with at least 1 TEAE (72 mg/day, N = 3) | Nausea, patients with event (96 mg/day, N = 5) | Vomiting, patients with event (96 mg/day, N = 5) | Total patients with at least 1 TEAE (128 mg/day, N = 3) | Constipation, patients with event (170 mg/day, N = 4) | Diarrhea, patients with event (170 mg/day, N = 4) | Dyspnea, patients with event (170 mg/day, N = 4) | Infusion-related reaction, patients with event (170 mg/day, N = 4) | Back pain, Grade ≥ 3 TEAE, n (%) (226 mg/day, N = 4) | Back pain, patients with event (226 mg/day, N = 4) | Vomiting, patients with event (226 mg/day, N = 4)
15: Total number of TEAEs (72 mg/day, N = 3) | Fatigue, patients with event (Total, N = 48)
19%: Grade 1 or 2 nausea, pts (discussion, all doses)
4: Fatigue, patients with event (170 mg/day, N = 4) | Total patients with at least 1 TEAE (170 mg/day, N = 4) | Total patients with at least 1 TEAE (226 mg/day, N = 4) | Abdominal distension, pts (all doses, N = 48)
46: Total number of TEAEs (226 mg/day, N = 4)
170 mg: Maximum tolerated dose (MTD) (IV three times a week for 2 weeks, 21-day cycles)
0: Dizziness, patients with event (72 mg/day, N = 3) | Dyspnea, patients with event (72 mg/day, N = 3) | Fatigue, patients with event (72 mg/day, N = 3) | Infusion-related reaction, patients with event (72 mg/day, N = 3) | Pyrexia, patients with event (72 mg/day, N = 3) | Vomiting, patients with event (72 mg/day, N = 3) | Dose-Limiting Toxicity (96 mg/day, 5 patients) | Abdominal pain, patients with event (96 mg/day, N = 5) | Back pain, patients with event (96 mg/day, N = 5) | Decreased appetite, patients with event (96 mg/day, N = 5) | Dyspnea, patients with event (96 mg/day, N = 5) | Fatigue, patients with event (96 mg/day, N = 5) | Oedema peripheral, patients with event (96 mg/day, N = 5) | Pyrexia, patients with event (96 mg/day, N = 5) | Dose-Limiting Toxicity (128 mg/day, 3 patients) | Constipation, patients with event (128 mg/day, N = 3) | Diarrhea, patients with event (128 mg/day, N = 3) | Infusion-related reaction, patients with event (128 mg/day, N = 3) | Vomiting, patients with event (128 mg/day, N = 3) | Dose-Limiting Toxicity (170 mg/day, 4 patients) | Back pain, patients with event (170 mg/day, N = 4) | Oedema peripheral, patients with event (170 mg/day, N = 4) | Pyrexia, patients with event (170 mg/day, N = 4) | Abdominal pain, patients with event (226 mg/day, N = 4) | Constipation, patients with event (226 mg/day, N = 4) | Dyspnea, patients with event (226 mg/day, N = 4) | Fatigue, patients with event (226 mg/day, N = 4) | Oedema peripheral, patients with event (226 mg/day, N = 4) | Pyrexia, patients with event (226 mg/day, N = 4)
9: Abdominal pain, patients with event (Total, N = 48)
26%: Grade 1–2 diarrhea (TEAE), pts (abstract, all doses)
30 (63%): Gastrointestinal (GI) disorders, pts (all doses, N = 48)
32%: Grade 1–2 nausea (TEAE), pts (abstract, all doses)
1 (25%): DLT of Grade 4 thrombocytopenia, pts (226 mg/d cohort)
34%: Grade 1–2 fatigue (TEAE), pts (abstract, all doses)
60: Total number of TEAEs (170 mg/day, N = 4)
